In data set [1] the test system is stéréotypies induites par l'amphétamine. Nature of the data set: Potentiation of amphetamine-induced stereotypies in the rat (test B). The class given is in vivo, rats SPRAGUE-DAWLEY. To be noted: for B-Potentialisation des stéréotypies induites par l'amphétamine (score global sur 3 heures): global score over 3 h, printed as treated/control. The procedure: B - Potentialisation des stéréotypies induites par l'amphétamine
Ce test est effectué sur des rats SPRAGUE-DAWLEY de souche OFA, provenant de l'élevage IFFA CREDO et d'un poids moyen de 150 + 10 g.
Le protocole mis en oeuvre est celui préconisé par SIMON et CHERMAT [J. Pharmacol. (Paris) 3 (2) 235-238 (1972)]%. Le produit étudié (ou le véhicule seul pour le lot témoin) est administré par voie intrapéritonéale à raison de 5 mg.kg^-1.
Les résultats expriment le score global sur 3 heures.

Data set [2] in a line: Estimated oral LD50 in the mouse. The settings on record: in vivo, estimate, read-out: Evaluation DL 50. The text has this: Dans ce tableau, on indique en outre une estimation de la DL 50 des composés par voie orale chez la souris.
For data set [3], the system named is ptosis réserpinique chez la souris. Nature of the data set: Antagonism of reserpine-induced ptosis in the mouse (test A). The class given is in vivo. To be noted: 60 min before reserpine i.p., ptosis score (RUBIN) 3 h after reserpine, pair of scores given. The procedure:
L'activité psychopharmacologique et spécialement l'activité antidépressive des composés de formule I (dans lesquels R représente l'hydrogène ou le radical méthyle) est illustrée par le résultat des tests suivants : • A - Antagonisme du ptosis réserpinique chez la souris Le produit étudié (ou le.véhicule seul - gomme arabique et eau 1/1 - pour le lot témoin) est administré par intubation oesophagienne à des souris de sexe mâle, de souche OF1 IFFA CREDO de poids moyen 22 + 1 g, puis 60 minutes après traitement, tous les animaux reçoivent par voie intrapéritonéale 1 mg.kg de Réserpine base.
Le composé de l'exemple 1 et la quipazine prise comme référence, ont été administrés à raison de 40 mg.kg^-1 et le composé de l'exemple 2 à raison de 10 mg.kg^-1.
L'appréciation du ptosis (oeil gauche) est donnée selon la cotation de RUBIN et Coll. [J. Pharmacol. Exp. Ther. 120, 125-136 (195717 3 heures après l'administration de Réserpine.

For data set [4], the system named is comportement " muricide " chez le rat LONG-EVANS. Nature of the data set: Antagonism of muricide behaviour in the LONG-EVANS rat (test C). The class given is in vivo. To be noted: 5 mg.kg^-1 i.p., 60 min before the mouse is presented; percent decrease versus control group. The procedure: C - Antagonisme du comportement " muricide " chez le rat LONG-EVANS
Les animaux utilisés sont des rats de sexe mâle LONG-EVANS de souche pie-noire, en provenance de l'élevage IFFA CREDO, dont la période d'isolement dans des cages individuelles est supérieure à 6 mois. L'administration des composés (ou du véhicule pour les animaux de groupe de contrôle) est effectuée par voie intrapéritonéale à raison de 5 mg.kg ^1, 60 minutes avant la mise en présence d'une souris avec les rats isolés (n ≥ 8 ) .
Le.comportement classiquement décrit comme " muricide " /VALZELLI L. - Actualités Pharmacologiques, 24, 133-152, (1971)] est positif si le rat tue la souris en un temps inférieur ou égal à 3 minutes.
Les résultats sont exprimés en pourcentage de diminution par rapport à celui du groupe des animaux de contrôle.

Where [5] appears, read: 40 mg.kg^-1 oral (oesophageal intubation).
Where [6] appears, read: 5 mg.kg^-1 i.p., percent increase of global score over control.

Take `c1ccc2nc(N3CCNCC3)ccc2c1` [QUIPAZINE, quipazine, reference compound]: the “B-Potentialisation des stéréotypies induites par l'amphétamine” value in data set [1] (even at 20 I P) is “Inactif même à 20 I P”. Further, the LD50 in data set [2] was 233 to 376 mg/kg. Also, the “A-Activité anti-réserpinique vis-à-vis du ptosis” value in data set [3] (setting [5]) is reported as 14 / 23. Also, the “C-Antagonisme du comportement muricide” value in data set [4] is recorded as 64,7%.

Take `c1cc2occc2c(N2CCNCC2)n1` [EXEMPLE 2, 4-(l-piperazinyl)-furo [3,2-c] pyridine]: in data set [1] (5 mg.kg^-1 i.p.), the “B-Potentialisation des stéréotypies induites par l'amphétamine (score global sur 3 heures)” value is given as 129/114. Further, in data set [1] (setting [6]), the “B-Potentialisation des stéréotypies induites par l'amphétamine” value is 13,2%. Besides, the LD50 in data set [2] was 200 mg/kg. For the same molecule, the “A-Activité anti-réserpinique vis-à-vis du ptosis” value in data set [3] (10 mg.kg^-1 oral (oesophageal intubation)) is 15 / 22. In addition, in data set [4], the “C-Antagonisme du comportement muricide” value worked out at 74%.

On to `Cc1cc2occc2c(N2CCNCC2)n1` [EXEMPLE 1, 6-methyl-4-(l-piperazinyl)-furo [3,2-c] pyridine], for which, in data set [1] (5 mg.kg^-1 i.p.), the “B-Potentialisation des stéréotypies induites par l'amphétamine (score global sur 3 heures)” value was 118/95. Moreover, the “B-Potentialisation des stéréotypies induites par l'amphétamine” value in data set [1] (setting [6]) is 24,2%. In data set [2], the LD50 is 250 mg/kg. For the same molecule, the “A-Activité anti-réserpinique vis-à-vis du ptosis” value in data set [3] (setting [5]) is on record as 13 / 23. Moreover, the “C-Antagonisme du comportement muricide” value in data set [4] was determined as 90%.

(Values after patent EP0041891A1, “6-Methyl-4-(1-piperazinyl)-furo(3,2-c)pyridines, process for their preparation and their therapeutic use” (RIOM LABORATOIRES- C.E.R.M. (Société Anonyme), priority 1980, dated 1981).)
